pEC50: −log10 of the molar value.
System: HCV replicon
Assay: HCV replicon replication assay (NPT ELISA) in Huh-7 replicon-containing cells
Format: cell-based, Hepatitis C virus
Conditions: Hepatitis C virus, 72 h; inhibition of HCV replicon replication, Huh-7 HCV replicon-containing cells, three days
Method: Compounds claimed herein are tested for the ability to inhibit viral replication of the Hepatitis C replicon in cultured cells in which the HCV replicon construct has been incorporated. The HCV replicon system was described by Bartenschlager, et. al (Science, 285, pp. 110-113 (1999)). The replicon system is predictive of in vivo anti-HCV activity; compounds that are active in humans uniformly evidence activity in the replicon assay.
In this assay HCV replicon containing cells are treated with different concentrations of the test compound to ascertain the ability of the test compound to suppress replication of the HCV replicon. As a positive control, HCV replicon-containing cells are treated with different concentrations of interferon alpha, a known inhibitor of HCV replication. The replicon assay system includes Neomycin Phosphotransferase (NPT) as a component of the replicon itself in order to detect the transcription of replicon gene products in the host cell. Cells in which the HCV replicon is actively replicating have high levels of NPT; the level of NPT is proportional to HCV replication. […] The NPT level of each sample is measured using a captured ELISA.
The HCV replicon contains, 5′-3′, the HCV-IRES, the neomycin phosphotransferase (neo) gene, the IRES of encephalomyocarditis virus, which directs translation of HCV sequences NS3 to NS5B, and the 3′-NTR. The sequence of the HCV replicon has been deposited in GenBank (Accession no. AJ242652).
The replicon is transfected into Huh-7 cells using standard methods such as electroporation.
HCV replicon-containing cells are rinsed with once PBS once; 2 mls of trypsin are then added. Cells are incubated at 37° C. in a 5% CO2 incubator for 3-5 minutes. 10 mls of complete medium is added to stop the reaction. Cells are blown gently, put into a 15 ml tube, and spun at 1200 rpm for four minutes. The trypsin/medium solution is removed and 5 mls of medium (500 ml DMEM (high glucose)) from BRL catalog #12430-054; 50 mls 10% FBS, 5% Geneticin G418 (50 mg/ml, BRL catalog #10131-035), 5 ml MEM non-essential amino acids (100×BRL #11140-050) and 5 ml pen-strep (BRL #15140-148) is added. The cells and media are mixed carefully
Cells are plated with screening medium (500 ml DMEM (BRL #21063-029), 50 ml FBS (BRL #10082-147) and 5 ml MEM non-essential amino acid (BRL #11140-050) at 6000-7500 cells/100 μl/well of 96 well plate (6-7.5×10^5 cells/10 ml/plate). Plates are placed into 37° C. 5% CO2 incubator overnight. 6D. Assay
The following morning, drugs (test compounds or interferon alpha) are diluted in 96 well U bottom plates with media or DMSO/media, depending on the final concentration chosen for screening. Generally for 6 concentrations of each test compounds ranging from 10 micromolar to 0.03 micromolar are applied. 100 μl of the test compound dilution is placed in wells of the 96 well plate containing the HCV replicon cells. Media without drug is added to some wells as a negative controls. DMSO is known to affect cell growth. Therefore, if drugs diluted in DMSO are used, all wells, including negative control (media only) and positive control (interferon alpha) wells, must contain the same concentration of DMSO, for single dose screening. The plates are incubated at 37° C. in a humidified 5% CO2 environment for three days.
On day four, the NTPII assay is quantitated. The medium is poured from the plates and the plates are washed once in 200 μl of PBS. The PBS is then decanted and the plates tapped in a paper towel to remove any remaining PBS. Cells are fixed in situ with 100 id/well of pre-cooled (−20° C.) methanol:acetone (1:1) and the plates are placed at −20° C. for 30 minutes.
The fixing solution is poured from the plates and the plates allowed to air-dry completely (approximately one hour). The appearance of the dried cell layer is recorded and the density of the cells in the toxic wells is scored with the naked eye. […]

Structure (SMILES) | pEC50
C=CC1CC1(NC(=O)[C@@H]1C[C@@H](Oc2cc(-c3ccccc3)nc3cc(OC)ccc23)CN1C(=O)[C@H](C(C)C)N1CCCCC1)C(=O)O (stereo partly drawn) [Compound 57, 1-((2S,4R)-4-(7-methoxy-2-phenylquinolin-4-yloxy)-1-((S)-3-methyl-2-(piperidin-1-yl)butanoyl)pyrrolidine-2-carboxamido)-2-vinylcyclopropanecarboxylic acid] | > 4.00
C=CC1CC1(NC(=O)[C@@H]1C[C@@H](Oc2cc(-c3ccccc3)nc3cc(OC)ccc23)CN1C(=O)[C@H](C1CCCCC1)N1CCCCC1)C(=O)O (stereo partly drawn) [Compound 58, 1-((2S,4R)-1-((S)-2-cyclohexyl-2-(piperidin-1-yl)acetyl)-4-(7-methoxy-2-phenylquinolin-4-yloxy)pyrrolidine-2-carboxamido)-2-vinylcyclopropanecarboxylic acid] | > 4.00
C=CC1CC1(NC(=O)[C@@H]1C[C@@H](Oc2cc(-c3ccccc3)nc3cc(OC)ccc23)CN1C(=O)[C@H](C)N1CCCCC1)C(=O)O (stereo partly drawn) [Compound 59, 1-((2S,4R)-4-(7-methoxy-2-phenylquinolin-4-yloxy)-1-((S)-2-(piperidin-1-yl)propanoyl)pyrrolidine-2-carboxamido)-2-vinylcyclopropanecarboxylic acid] | < 4.00
CCOC(=O)C12CC1/C=C\CCCCC[C@H](N1CCCCC1)C(=O)N1C[C@H](Oc3cc(-c4ccccc4)nc4cc(OC)ccc34)C[C@H]1C(=O)N2 (stereo partly drawn) [Compound 60, (2R,6S,16aS,Z)-ethyl 2-(7-methoxy-2-phenylquinolin-4-yloxy)-5,16-dioxo-6-(piperidin-1-yl)-1,2,3,5,6,7,8,9,10,11,13a,14,14a, 15,16,16a-hexadecahydrocyclopropa [e]pyrrolo[1,2-a] [1,4]diazacyclopentadecine-14a-carboxylatc] | > 4.00
COc1ccc2c(O[C@@H]3C[C@H]4C(=O)NC5(C(=O)O)CC5/C=C\CCCCC[C@H](N5CCCCC5)C(=O)N4C3)cc(-c3ccccc3)nc2c1 (stereo partly drawn) [Compound 61, (2R,6S,16aS,Z)-2-(7-methoxy-2-phenylquinolin-4-yloxy)-5,16-dioxo-6-(pipcridin-1-yl)-1,2,3,5,6,7,8,9,10,11,13a,14,14a, 15,16,16a-hexadecahydrocyclopropa [e]pyrrolo[1,2-a] [1,4]diazacyclopentadecine-14a-carboxylic acid] | > 4.00
CCOC(=O)[C@]12C[C@@H]1/C=C\CCCCC[C@H](N1CCCCC1)C(=O)N1C[C@H](Oc3cc(-c4ccccc4)nc4cc(OC)ccc34)C[C@H]1C(=O)N2 [Compound 62, (2R,6S,13aR,14aS,16aS,Z)-ethyl 2-(7-methoxy-2-phenylquinolin-4-yloxy)-5,16-dioxo-6-(piperidin-1-yl)-1,2,3,5,6,7,8,9,10,11,13a,14,14a, 15,16,16a-hexadecahydrocyclopropa [e]pyrrolo[1,2-a] [1,4]diazacyclopentadecine-14a-carboxylate] | > 4.00
CCOC(=O)[C@@]12C[C@H]1/C=C\CCCCC[C@H](N1CCCCC1)C(=O)N1C[C@H](Oc3cc(-c4ccccc4)nc4cc(OC)ccc34)C[C@H]1C(=O)N2 [Compound 63, (2R,6S,13aS,14aR,16aS,Z)-ethyl 2-(7-methoxy-2-phenylquinolin-4-yloxy)-5,16-dioxo-6-(piperidin-1-yl)-1,2,3,5,6,7,8,9,10,11,13a,14,14a, 15,16,16a-hexadecahydrocyclopropa [e]pyrrolo[1,2-a] [1,4]diazacyclopentadecine-14a-carboxylate] | > 4.00
C=CC1CC1(NC(=O)[C@@H]1C[C@@H](Oc2cc(-c3ccccc3)nc3cc(OC)ccc23)CN1C(=O)[C@H](C1CCCCC1)N1CCCCC1)C(=O)NS(=O)(=O)C1CC1 (stereo partly drawn) [Compound 64, (2S,4R)-1-((S)-2-cyclohexyl-2-(piperidin-1-yl)acetyl)-N-(1-(cyclopropylsulfonylcarbamoyl)-2-vinylcyclopropyl)-4-(7-methoxy-2-phenylquinolin-4-yloxy)pyrrolidine-2-carboxamide] | > 4.00
C=C[C@H]1C[C@@]1(NC(=O)[C@@H]1C[C@@H](Oc2cc(-c3ccccc3)nc3cc(OC)ccc23)CN1C(=O)[C@H](c1ccccc1)N1CCCCC1)C(=O)NS(=O)(=O)C1CC1 [Compound 65, (2S,4R)-N-((1S,2R)-1-(cyclopropylsulfonylcarbamoyl)-2-vinylcyclopropyl)-4-(7-methoxy-2-phenylquinolin-4-yloxy)-1-((S)-2-phenyl-2-(piperidin-1-yl)acetyl)pyrrolidine-2-carboxamide] | > 4.00
C=C[C@@H]1C[C@]1(NC(=O)[C@@H]1C[C@@H](Oc2cc(-c3ccccc3)nc3cc(OC)ccc23)CN1C(=O)[C@H](c1ccccc1)N1CCCCC1)C(=O)NS(=O)(=O)C1CC1 [Compound 66, (2S,4R)-N-((1R,2S)-1-(cyclopropylsulfonylcarbamoyl)-2-vinylcyclopropyl)-4-(7-methoxy-2-phenylquinolin-4-yloxy)-1-((S)-2-phenyl-2-(piperidin-1-yl)acetyl)pyrrolidine-2-carboxamide] | > 4.00
C=CC1CC1(NC(=O)[C@@H]1C[C@@H](Oc2cc(-c3ccccc3)nc3cc(OC)ccc23)CN1C(=O)[C@H](C)N1CCCCC1)C(=O)NS(=O)(=O)C1CC1 (stereo partly drawn) [Compound 67, (2S,4R)-N-(1-(cyclopropylsulfonylcarbamoyl)-2-vinylcyclopropyl)-4-(7-methoxy-2-phenylquinolin-4-yloxy)-1-((S)-2-(piperidin-1-yl)propanoyl)pyrrolidine-2-carboxamide] | > 4.00
C=CC1CC1(NC(=O)[C@@H]1C[C@@H](Oc2cc(-c3ccccc3)nc3cc(OC)ccc23)CN1C(=O)[C@H](C(C)C)N1CCCCC1)C(=O)NS(=O)(=O)C1CC1 (stereo partly drawn) [Compound 68, (2S,4R)-N-(1-(cyclopropylsulfonylcarbamoyl)-2-vinylcyclopropyl)-4-(7-methoxy-2-phenylquinolin-4-yloxy)-1-((S)-3-methyl-2-(piperidin-1-yl)butanoyl)pyrrolidine-2-carboxamide] | > 4.00
C=CC1CC1(NC(=O)[C@@H]1C[C@@H](Oc2cc(-c3ccccc3)nc3cc(OC)ccc23)CN1C(=O)[C@H](CC(C)C)N1CCCCC1)C(=O)NS(=O)(=O)C1CC1 (stereo partly drawn) [Compound 69, (2S,4R)-N-(1-(cyclopropylsulfonylcarbamoyl)-2-vinylcyclopropyl)-4-(7-methoxy-2-phenylquinolin-4-yloxy)-1-((S)-4-methyl-2-(piperidin-1-yl)pentanoyl)pyrrolidine-2-carboxamide] | > 4.00

Source: US8435984B2, “Tertiary amine substituted peptides useful as inhibitors of HCV replication” (Achillion Pharmaceuticals, Inc., priority 2007, dated 2013)
